Reference: PubChem BioAssay (NCI)
Where “and” joins values, the source holds several entries; their conditions need not be identical. Identical values can stand only once.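 Test compounds were applied to cells in 96-well plates for 48 hours at 5 doses. GI50 = concentration required for 50% inhibition of growth. Definition used: TGI = concentration required for complete inhibition of growth.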

These compounds were tested on NCI/ADR-RES ovarian (assay: DTP human tumour cell line panel, 48 h).

SMILES	GI50	TGI
CC[C@]1(O)C[C@@H]2CN(CCc3c([nH]c4ccccc34)[C@@](C(=O)OC)(c3cc4c(cc3OC)N(C)[C@H]3[C@@](O)(C(=O)OC)[C@H](OC(C)=O)[C@]5(CC)C=CCN6CC[C@]43[C@@H]65)C2)C1	< 0.0445 µM	2.68 µM
N#CSc1c[nH]c2cccc(/C=C/C(=O)/C=C(/C=C/c3cccc4[nH]cc(SC#N)c34)OB(F)F)c12	4.3 µM	> 100 µM
COc1cc([N+](=O)[O-])cc2c3c(n(C)c12)[C@@]1(C)CCC2c4ccc(OCc5ccccc5)cc4CCC2C1C3 (stereo not given in full)	> 100 µM	> 100 µM
C=CC(=O)N1CC2(CCN(c3nc(OC4CCN(CCCOC)CC4)nc4c(OCC(F)(F)F)c(-c5c(C)ccc6[nH]ncc56)c(C5CC5)cc34)CC2)C1	14.8 µM	36.6 µM
CC[C@@H]1C(=O)N(C)c2cnc(Nc3ccc(C(=O)NC4CCN(C)CC4)cc3OC)nc2N1C1CCCC1	0.351 µM and 0.244 µM	> 10 µM and 19 µM
C=C1C(=O)O[C@H]2[C@H]1CC/C(COC(=O)c1ccc3ccccc3c1)=C\CC[C@@]1(C)O[C@@H]21	2.32 µM	10.2 µM
Nc1nc(Cl)c2ncn(Cc3ccc(C45CC6CC(CC(C6)C4)C5)c(O)c3)c2n1	3.15 µM	16.4 µM
CC[CH2][Sn]([CH2]CC)([O]C(=O)c1cccnc1SC)[O][Sn]([CH2]CC)([CH2]CC)[O]C(=O)c1cccnc1SC	1.49 µM	3.24 µM
CC(C)c1nc(CN(C)C(=O)N[C@H](C(=O)N[C@@H](Cc2ccccc2)C[C@H](O)[C@H](Cc2ccccc2)NC(=O)OCc2cncs2)C(C)C)cs1	37.9 µM	> 100 µM
CC[C@@]1(O)C(=O)OCc2c1cc1n(c2=O)Cc2c-1nc1cc3c(cc1c2CCl)OCO3	< 0.01 µM	0.133 µM
N#Cc1ccc(O)c(C2=NCC(c3cccc(Oc4ccccc4)c3)O2)c1 (stereo not given)	0.29 µM	6.51 µM
O=C1Nc2c(C(F)(F)F)cccc2[C@]1(c1ccc(O)cc1)c1ccc(OC(F)(F)F)cc1	8.78 µM	25.8 µM
CC(=O)OC[C@]1(C)C=C2C(=O)[C@](C)(O)C3(CC3)C(C)=C2[C@H]1O	0.0772 µM	0.804 µM
Oc1ccc(NCc2nc3ccccc3[nH]2)cc1	> 100 µM	> 100 µM
C[C@]12CC[C@H]3[C@@H](CC=C4C[C@@H](O)CC[C@@]43C)[C@@H]1CC[C@@H]2N(CCO)CCO		> 100 µM
O=C1c2cc(Cl)ccc2S(=O)(=O)c2c(NCCCNCCO)nc3ccccc3c21	3.05 µM	10.8 µM
CC(C)(C)OC(=O)N1CCc2c(sc3ncnc(N/N=C/c4cccc5ccccc45)c23)C1	3.74 µM	43.8 µM
CC[C@@H]1CN(C)[C@H]2Cc3c([nH]c4ccccc34)C(=O)C[C@H]1C2C(=O)OC (stereo not given in full)		> 100 µM
CCN(CC)c1ccc(/C=C/c2ccc3cc(C)ccc3[n+]2CC)cc1	5.69 µM	47.4 µM
COc1ccc(/C=C/c2nccc3ccccc23)cc1OC		> 10 µM
COC1/C=C\C=C(/C)C(=O)NC2=CC(=O)C(=O)C(=C2O)CC(C)CC(OC)C(O)C(C)/C=C(\C)C1OC(N)=O (stereo not given)		> 100 µM
O=c1[nH]ncc(Br)c1Br	2.91 µM	7.69 µM

Each compound was assayed on HT29 colon (assay: DTP human tumour cell line panel, 48 h).

SMILES	GI50	TGI
CC[C@]1(O)C[C@@H]2CN(CCc3c([nH]c4ccccc34)[C@@](C(=O)OC)(c3cc4c(cc3OC)N(C)[C@H]3[C@@](O)(C(=O)OC)[C@H](OC(C)=O)[C@]5(CC)C=CCN6CC[C@]43[C@@H]65)C2)C1	< 10 nM	18.9 µM
N#CSc1c[nH]c2cccc(/C=C/C(=O)/C=C(/C=C/c3cccc4[nH]cc(SC#N)c34)OB(F)F)c12	386 nM	2.26 µM
COc1cc([N+](=O)[O-])cc2c3c(n(C)c12)[C@@]1(C)CCC2c4ccc(OCc5ccccc5)cc4CCC2C1C3 (stereo not given in full)	17700 nM	42.8 µM
C=CC(=O)N1CC2(CCN(c3nc(OC4CCN(CCCOC)CC4)nc4c(OCC(F)(F)F)c(-c5c(C)ccc6[nH]ncc56)c(C5CC5)cc34)CC2)C1	2280 nM	5.83 µM
CC[C@@H]1C(=O)N(C)c2cnc(Nc3ccc(C(=O)NC4CCN(C)CC4)cc3OC)nc2N1C1CCCC1	3.6 nM and < 10 nM	> 4.71 µM and 10.3 µM
C=C1C(=O)O[C@H]2[C@H]1CC/C(COC(=O)c1ccc3ccccc3c1)=C\CC[C@@]1(C)O[C@@H]21	438 nM	1.65 µM
Nc1nc(Cl)c2ncn(Cc3ccc(C45CC6CC(CC(C6)C4)C5)c(O)c3)c2n1	4040 nM	46.7 µM
CC[CH2][Sn]([CH2]CC)([O]C(=O)c1cccnc1SC)[O][Sn]([CH2]CC)([CH2]CC)[O]C(=O)c1cccnc1SC	1100 nM	3.33 µM
CC(C)c1nc(CN(C)C(=O)N[C@H](C(=O)N[C@@H](Cc2ccccc2)C[C@H](O)[C@H](Cc2ccccc2)NC(=O)OCc2cncs2)C(C)C)cs1	19300 nM	50.6 µM
CC[C@@]1(O)C(=O)OCc2c1cc1n(c2=O)Cc2c-1nc1cc3c(cc1c2CCl)OCO3	27.1 nM	> 22.3 µM
N#Cc1ccc(O)c(C2=NCC(c3cccc(Oc4ccccc4)c3)O2)c1 (stereo not given)	5410 nM	41.6 µM
O=C1Nc2c(C(F)(F)F)cccc2[C@]1(c1ccc(O)cc1)c1ccc(OC(F)(F)F)cc1	10300 nM	28.9 µM
CC(=O)OC[C@]1(C)C=C2C(=O)[C@](C)(O)C3(CC3)C(C)=C2[C@H]1O	33.9 nM	> 100 µM
Oc1ccc(NCc2nc3ccccc3[nH]2)cc1	> 100000 nM	> 100 µM
C[C@]12CC[C@H]3[C@@H](CC=C4C[C@@H](O)CC[C@@]43C)[C@@H]1CC[C@@H]2N(CCO)CCO		> 100 µM
O=C1c2cc(Cl)ccc2S(=O)(=O)c2c(NCCCNCCO)nc3ccccc3c21	1400 nM	2.94 µM
CC(C)(C)OC(=O)N1CCc2c(sc3ncnc(N/N=C/c4cccc5ccccc45)c23)C1	4070 nM	> 100 µM
CC[C@@H]1CN(C)[C@H]2Cc3c([nH]c4ccccc34)C(=O)C[C@H]1C2C(=O)OC (stereo not given in full)		> 100 µM
CCN(CC)c1ccc(/C=C/c2ccc3cc(C)ccc3[n+]2CC)cc1	77.1 nM	2.19 µM
COc1ccc(/C=C/c2nccc3ccccc23)cc1OC		> 10 µM
COC1/C=C\C=C(/C)C(=O)NC2=CC(=O)C(=O)C(=C2O)CC(C)CC(OC)C(O)C(C)/C=C(\C)C1OC(N)=O (stereo not given)		17.8 µM
O=c1[nH]ncc(Br)c1Br	1900 nM	3.5 µM

The compounds below were run on SF-295 CNS (assay: DTP human tumour cell line panel, 48 h).

SMILES	GI50	TGI
CC[C@]1(O)C[C@@H]2CN(CCc3c([nH]c4ccccc34)[C@@](C(=O)OC)(c3cc4c(cc3OC)N(C)[C@H]3[C@@](O)(C(=O)OC)[C@H](OC(C)=O)[C@]5(CC)C=CCN6CC[C@]43[C@@H]65)C2)C1	< 10 nM	0.991 µM
N#CSc1c[nH]c2cccc(/C=C/C(=O)/C=C(/C=C/c3cccc4[nH]cc(SC#N)c34)OB(F)F)c12	2680 nM	9.16 µM
COc1cc([N+](=O)[O-])cc2c3c(n(C)c12)[C@@]1(C)CCC2c4ccc(OCc5ccccc5)cc4CCC2C1C3 (stereo not given in full)	35000 nM	> 100 µM
C=CC(=O)N1CC2(CCN(c3nc(OC4CCN(CCCOC)CC4)nc4c(OCC(F)(F)F)c(-c5c(C)ccc6[nH]ncc56)c(C5CC5)cc34)CC2)C1	2080 nM	5.65 µM
CC[C@@H]1C(=O)N(C)c2cnc(Nc3ccc(C(=O)NC4CCN(C)CC4)cc3OC)nc2N1C1CCCC1	14.7 nM and 18.9 nM	> 10 µM and 15 µM
C=C1C(=O)O[C@H]2[C@H]1CC/C(COC(=O)c1ccc3ccccc3c1)=C\CC[C@@]1(C)O[C@@H]21	1540 nM	3.06 µM
Nc1nc(Cl)c2ncn(Cc3ccc(C45CC6CC(CC(C6)C4)C5)c(O)c3)c2n1	3290 nM	17.4 µM
CC[CH2][Sn]([CH2]CC)([O]C(=O)c1cccnc1SC)[O][Sn]([CH2]CC)([CH2]CC)[O]C(=O)c1cccnc1SC	1040 nM	3.04 µM
CC(C)c1nc(CN(C)C(=O)N[C@H](C(=O)N[C@@H](Cc2ccccc2)C[C@H](O)[C@H](Cc2ccccc2)NC(=O)OCc2cncs2)C(C)C)cs1	22100 nM	50.5 µM
CC[C@@]1(O)C(=O)OCc2c1cc1n(c2=O)Cc2c-1nc1cc3c(cc1c2CCl)OCO3	< 10 nM	0.0252 µM
